From paper PMC8802890, “Identification of U937^JAK3-M511I Acute Myeloid Leukemia Cells as a Sensitive Model to JAK3 Inhibitor” (Frontiers in Oncology, 2022) come the findings set out here.

Data set [1] deals with JAK3-STAT3/5 signal pathway in U937 cells. The data set is described as follows: Western blotting of JAK3-STAT3/5 signal pathway, U937. The class given is cell-based, human. In general terms: Immunoblotting shows a protein as a band on a membrane.
In data set [2] the test system is U937 cells. The data set can be described thus: Cell cycle analysis by flow cytometry, U937. The class given is cell-based, human. Background: A flow cytometer gives signals particle by particle.
A further data set has as its system Jurkat. The data set is described as follows: CCK-8 anti-proliferation, Jurkat. Particulars: read-out: IC50 Cell line Jurkat; CCK-8, 72 h; mean ± SD.
The subject of a further data set is Ba/F3-JAK3 (M511I). The data set can be described thus: CCK-8 anti-proliferation, Ba/F3-JAK3 (M511I). The settings on record: Mus musculus; CCK-8, 72 h; mean ± SD. The class given is cell-based, Murine.
A further data set relates to Daudi. The data set is described as follows: CCK-8 anti-proliferation, Daudi. Particulars: read-out: IC50 Cell line Daudi; CCK-8, 72 h; mean ± SD.
The subject of the next data set is MOLT-4. The data set can be described thus: CCK-8 anti-proliferation, MOLT-4. The settings on record: read-out: IC50 Cell line MOLT-4; CCK-8, 72 h; mean ± SD.
Another data set has as its system Ba/F3-TEL-JAK1. The data set is described as follows: CCK-8 anti-proliferation, Ba/F3-TEL-JAK1. The class given is cell-based, Murine. Particulars: Mus musculus, CCK-8, 72 h, mean ± SD.
The test system of the next data set is U937 AML cells. The data set is described as follows: CCK-8 anti-proliferation, U937. Particulars: for IC50: Homo sapiens, U-937, 72 h, read-out: IC50 Cell line U937.
The next data set concerns Ba/F3-TEL-JAK2. The data set can be described thus: CCK-8 anti-proliferation, Ba/F3-TEL-JAK2. The class given is cell-based, Murine. The settings on record: Mus musculus; CCK-8, 72 h; mean ± SD.
For another data set, the system named is OCI-LY3 cells. The data set can be described thus: Cell cycle analysis by flow cytometry, OCI-LY3. Format: cell-based. Particulars: PF-06651600 treatment.
Another data set has as its system Ba/F3. The data set is described as follows: CCK-8 anti-proliferation, parental Ba/F3. Format: cell-based, Murine. Particulars: Mus musculus, BaF3; parental cells, with IL-3; CCK-8, 72 h; mean ± SD.
The subject of data set [3] is JAK3-STAT3/5 signal pathway in Ba/F3-JAK3 M511I cell line. The data set can be described thus: Western blotting of JAK3-STAT3/5 signal pathway, Ba/F3-JAK3 M511I. Format: cell-based, Murine. The text has this:
Murine Ba/F3 cells were purchased from DSMZ (Deutsche Sammlung von Mikroorganismen und Zellkulturen). Ba/F3 cell lines stably expressing JAK1 and JAK2 were self-established through electroporation of pCDNA3.1-TEL plasmids. JAK3 (M511I) was produced from pCDNA3.1 plasmids using the Amaxa Cell Line Nucleofector Kit V (Lonza, Cologne, Germany). Stable cell lines were selected by G418 (Merck, NJ, USA) and subsequent withdrawal of IL-3 (R&D, MN, USA). All Ba/F3 stable cell lines were confirmed by positive drug tests, DNA sequencing, and Western blotting (WB) analysis. Parental Ba/F3 cells were maintained in RPMI-1640 supplemented with 10% FBS (Biological Industries) and 1% penicillin-streptomycin (Biological Industries) and 10 ng/ml of IL-3, while all Ba/F3 stable cell lines were cultured in the same medium without IL-3.
Cells at a cell density of 8 × 10^5 cells/ml were treated with different concentrations of compounds or DMSO for the indicated time. The cells were then lysed with 1× SDS sample lysis buffer, as recommended by CST. […] The protein signals were detected with Amersham Imager 600 system (GE, Boston, MA, USA) using an ECL Western blotting detection kit (Thermo Fisher Scientific, Waltham, MA, USA).

The next data set has as its target T1, JAK1 (Homo sapiens, UniProt P23458).
T1 construct: purchased Invitrogen (Waltham, MA, USA)
The data set is described as follows: Z'-Lyte kinase assay, JAK1. Format: biochemical.

The test system of the next data set is HL-60. The data set can be described thus: CCK-8 anti-proliferation, HL-60. Particulars: read-out: IC50 Cell line HL-60; CCK-8, 72 h; mean ± SD.
The next data set relates to OCI-LY3. The data set is described as follows: CCK-8 anti-proliferation, OCI-LY3. The settings on record: read-out: IC50 Cell line OCI-LY3; CCK-8, 72 h; mean ± SD.
Data set [4] has as its system U937 cells. The data set is described as follows: Apoptosis assay (7-AAD / Annexin V-PE flow cytometry), U937. The class given is cell-based, human. The settings on record: PF-06651600 treatment.
In another data set the test system is MV4-11. The data set can be described thus: CCK-8 anti-proliferation, MV4-11. The settings on record: read-out: IC50 Cell line MV4-11; CCK-8, 72 h; mean ± SD.
A further data set addresses T2, JAK3 (Homo sapiens, UniProt P52333).
T2 construct: purchased Invitrogen (Waltham, MA, USA)
T2 sequence (P52333 1-1124): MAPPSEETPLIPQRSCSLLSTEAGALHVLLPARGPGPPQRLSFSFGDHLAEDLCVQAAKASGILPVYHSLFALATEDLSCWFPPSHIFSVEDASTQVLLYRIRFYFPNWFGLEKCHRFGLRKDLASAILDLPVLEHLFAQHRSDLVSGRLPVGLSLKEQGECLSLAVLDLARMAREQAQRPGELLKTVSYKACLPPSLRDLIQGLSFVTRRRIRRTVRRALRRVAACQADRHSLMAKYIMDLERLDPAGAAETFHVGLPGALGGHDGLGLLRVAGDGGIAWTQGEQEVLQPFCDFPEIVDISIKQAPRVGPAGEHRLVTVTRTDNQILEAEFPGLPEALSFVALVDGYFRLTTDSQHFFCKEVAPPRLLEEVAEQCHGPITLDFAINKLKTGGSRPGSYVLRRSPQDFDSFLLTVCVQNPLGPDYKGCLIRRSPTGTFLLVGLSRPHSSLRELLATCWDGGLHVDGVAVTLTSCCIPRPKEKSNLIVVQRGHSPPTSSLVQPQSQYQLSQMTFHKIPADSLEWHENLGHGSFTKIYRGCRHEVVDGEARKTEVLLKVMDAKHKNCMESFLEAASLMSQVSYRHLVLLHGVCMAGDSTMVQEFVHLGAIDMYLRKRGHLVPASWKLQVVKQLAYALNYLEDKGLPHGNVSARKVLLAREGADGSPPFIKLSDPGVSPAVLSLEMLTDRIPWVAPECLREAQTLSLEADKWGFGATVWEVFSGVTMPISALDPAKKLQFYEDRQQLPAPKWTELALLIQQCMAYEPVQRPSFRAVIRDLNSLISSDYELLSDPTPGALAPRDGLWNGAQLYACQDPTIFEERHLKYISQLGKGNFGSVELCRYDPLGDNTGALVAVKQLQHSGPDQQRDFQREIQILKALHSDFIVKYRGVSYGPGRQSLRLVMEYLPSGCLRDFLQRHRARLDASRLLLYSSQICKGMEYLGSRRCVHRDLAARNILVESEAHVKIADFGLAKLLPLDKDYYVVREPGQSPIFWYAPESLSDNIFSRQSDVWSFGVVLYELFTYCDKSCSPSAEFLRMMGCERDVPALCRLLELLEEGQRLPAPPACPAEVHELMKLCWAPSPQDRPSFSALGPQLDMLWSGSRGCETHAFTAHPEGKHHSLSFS
The data set is described as follows: Z'-Lyte kinase assay, JAK3. The class given is biochemical.

T1 sequence (P23458 whole entry): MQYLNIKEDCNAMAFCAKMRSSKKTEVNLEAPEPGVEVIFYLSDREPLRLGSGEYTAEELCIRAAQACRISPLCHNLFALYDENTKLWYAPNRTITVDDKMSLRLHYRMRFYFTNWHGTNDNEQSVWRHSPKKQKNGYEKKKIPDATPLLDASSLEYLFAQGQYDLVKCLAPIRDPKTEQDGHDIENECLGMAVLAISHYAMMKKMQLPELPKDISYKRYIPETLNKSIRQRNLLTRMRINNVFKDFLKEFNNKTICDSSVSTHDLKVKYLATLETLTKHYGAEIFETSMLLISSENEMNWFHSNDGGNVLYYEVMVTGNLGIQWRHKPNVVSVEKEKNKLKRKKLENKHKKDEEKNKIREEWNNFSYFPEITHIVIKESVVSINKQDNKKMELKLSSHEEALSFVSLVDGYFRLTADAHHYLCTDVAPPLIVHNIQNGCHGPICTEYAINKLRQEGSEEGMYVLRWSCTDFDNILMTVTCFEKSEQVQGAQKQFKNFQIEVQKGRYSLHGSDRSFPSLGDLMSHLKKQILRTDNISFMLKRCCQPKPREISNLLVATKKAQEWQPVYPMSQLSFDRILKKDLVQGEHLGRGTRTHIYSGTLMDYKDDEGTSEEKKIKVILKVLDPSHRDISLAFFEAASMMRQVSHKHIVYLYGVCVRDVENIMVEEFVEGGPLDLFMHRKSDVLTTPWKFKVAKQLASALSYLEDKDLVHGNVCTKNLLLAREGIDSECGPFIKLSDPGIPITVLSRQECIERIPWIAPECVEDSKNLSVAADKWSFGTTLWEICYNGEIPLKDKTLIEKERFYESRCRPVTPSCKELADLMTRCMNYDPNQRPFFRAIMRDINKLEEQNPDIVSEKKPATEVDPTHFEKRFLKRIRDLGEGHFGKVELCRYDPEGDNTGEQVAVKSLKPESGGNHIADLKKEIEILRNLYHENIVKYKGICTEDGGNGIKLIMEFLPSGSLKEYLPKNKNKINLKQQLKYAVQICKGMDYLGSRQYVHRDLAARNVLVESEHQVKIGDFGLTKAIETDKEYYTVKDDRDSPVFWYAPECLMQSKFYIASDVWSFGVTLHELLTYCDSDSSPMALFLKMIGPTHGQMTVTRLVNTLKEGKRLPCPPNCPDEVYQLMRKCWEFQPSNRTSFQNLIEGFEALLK

On to “Si-JAK3: Synthetic JAK3 small interfering RNA from RiboBio; si-JAK3: 5′-GCAGACACTTAGCTTGGAA-3′ (chemistry not fully specified)”, for which the “activation of JAK3-STAT3/5 signal pathway” value in data set [1] (JAK3 siRNA for 72 h) was “suppressed activation of JAK3-STAT3/5 signal pathway”. In addition, the “cell cycle arrest” value in the data set with U937 cells [2] (JAK3 siRNA) is given as “induced G0/G1 phase arrest”.
As usually defined, the IC50 is the concentration needed to halve the response being measured. In the case of `C=CC(=O)N1C[C@H](Nc2ncnc3[nH]ccc23)CC[C@@H]1C` [PF-06651600, ritlecitinib], the IC50 was greater than 10 µM in the data set with Jurkat; 0.03 ± 0.01 µM with Ba/F3-JAK3 (M511I); greater than 10 µM in the data set on Daudi; greater than 10 µM in the data set on MOLT-4; greater than 10 µM with Ba/F3-TEL-JAK1; 0.027 ± 0.004 µM in the data set on U937 AML cells. The concentration for half-maximal inhibition (IC50) in the data set on Ba/F3-TEL-JAK2, in the data set with Ba/F3, in the data set with HL-60, in the data set with OCI-LY3 and in the data set on MV4-11 was greater than 10 µM in each case. For the same molecule, the “activation of JAK3 and the downstream signals” value in [1] was “potently suppressed the activation of JAK3 and the downstream signals in a dose-dependent manner”. Further, in the data set on OCI-LY3 cells, the “cell fate or phenotypes” value was “did not obviously affect the cell fate or the phenotypes”. Moreover, the “downstream signaling factors of JAK3” value in data set [3] is given as “inhibited the downstream signaling factors of JAK3”. Moreover, the “phosphorylation of JAK3” value in data set [3] was “enhanced the phosphorylation of JAK3”. The “potency against JAK1 less than against JAK3” value on JAK1 was “approximately 3,000 fold”. In addition, the “cell cycle arrest” value with U937 cells [2] (PF-06651600 treatment) is “dose-dependent G0/G1 phase cell cycle arrest”. Besides, in the data set on U937 cells [4], the “apoptosis” value is given as “inducing apoptosis only barely”.
For `CC[C@@H]1CN(C(=O)NCC(F)(F)F)C[C@@H]1c1cnc2cnc3[nH]ccc3n12` [Upadacitinib], the IC50 with Jurkat was greater than 10 µM; in the data set on Ba/F3-JAK3 (M511I), 0.098 ± 0.047 µM; in the data set on Daudi, greater than 10 µM; in the data set on MOLT-4, greater than 10 µM; in the data set with Ba/F3-TEL-JAK1, 0.075 ± 0.008 µM; with U937 AML cells, 0.25 ± 0.03 µM. The IC50 is 0.18 ± 0.01 µM with Ba/F3-TEL-JAK2; 0.9 ± 0.12 µM in the data set on Ba/F3; greater than 10 µM with HL-60; greater than 10 µM with OCI-LY3; greater than 10 µM with MV4-11.
As for `N#CC[C@H](C1CCCC1)n1cc(-c2ncnc3[nH]ccc23)cn1` [Ruxolitinib], the IC50 in the data set with Jurkat is greater than 10 µM; with Daudi, greater than 10 µM; in the data set on MOLT-4 it was greater than 10 µM; in the data set with U937 AML cells it was 0.7 ± 0.11 µM; with HL-60, greater than 10 µM; in the data set with OCI-LY3, greater than 10 µM. The 50% inhibitory concentration (IC50) in the data set on MV4-11 was greater than 10 µM. In the data set on U937 AML cells, the “antiproliferative activity against U937 cells” value (“antiproliferative activity” for short) is “sub-micromole antiproliferative activity”. At JAK3, the “JAK3 kinase inhibition” value is reported as “reasonable inhibition of JAK3”.
Take `Cc1cnc(Nc2ccc(OCCN3CCCC3)cc2)nc1Nc1cccc(S(=O)(=O)NC(C)(C)C)c1` [Fedratinib]: the half-inhibitory concentration (IC50) in the data set with Jurkat was 1.42 ± 0.32 µM; in the data set on Ba/F3-JAK3 (M511I), 2.84 ± 0.39 µM; in the data set with Daudi, 3.92 ± 0.21 µM; in the data set on MOLT-4, 2.72 ± 0.54 µM; in the data set with Ba/F3-TEL-JAK1 it was 1.96 ± 0.24 µM; in the data set on U937 AML cells, 2.53 ± 0.17 µM. Moreover, the 50% inhibitory concentration (IC50) in the data set with Ba/F3-TEL-JAK2 was 1.83 ± 0.06 µM; in the data set on Ba/F3, 3.47 ± 0.33 µM; in the data set on HL-60, 2.44 ± 0.16 µM; in the data set with OCI-LY3, 3.18 ± 0.13 µM; in the data set on MV4-11, greater than 10 µM. Moreover, the “antiproliferative activity” value in the data set with U937 AML cells is given as “micromolar IC50 values”. Moreover, the “JAK3 kinase inhibition” value at JAK3 is listed as “weakly suppressed the activity of JAK3”.
Regarding `NC(=O)c1cnc2[nH]ccc2c1N[C@@H]1[C@@H]2CC3C[C@H]1C[C@@](O)(C3)C2` [Peficitinib], the IC50 was determined as 2.32 ± 0.82 µM in the data set with Jurkat; 0.1 ± 0.05 µM in the data set with Ba/F3-JAK3 (M511I); 5.82 ± 0.15 µM in the data set with Daudi; 2.22 ± 0.08 µM with MOLT-4; 0.6 ± 0.08 µM with Ba/F3-TEL-JAK1; 0.09 ± 0.02 µM with U937 AML cells. The IC50 in the data set with Ba/F3-TEL-JAK2 amounted to 1.29 ± 0.09 µM; with Ba/F3, 1.56 ± 0.09 µM; with HL-60, 4.93 ± 1.22 µM; with OCI-LY3, 3.42 ± 0.01 µM; in the data set on MV4-11, 9.19 ± 0.98 µM.
On to `O=C(Nc1nc2cccc(-c3ccc(CN4CCS(=O)(=O)CC4)cc3)n2n1)C1CC1` [Filgotinib], for which the 50% inhibitory concentration (IC50) was greater than 10 µM in the data set with Jurkat; 7.19 ± 2.5 µM in the data set on Ba/F3-JAK3 (M511I); greater than 10 µM in the data set with Daudi; greater than 10 µM in the data set on MOLT-4; greater than 10 µM in the data set on Ba/F3-TEL-JAK1; greater than 10 µM with U937 AML cells. For the same molecule, the half-inhibitory concentration (IC50) with Ba/F3-TEL-JAK2, with Ba/F3, with HL-60, in the data set on OCI-LY3 and in the data set on MV4-11 was greater than 10 µM in each case. Moreover, the “antiproliferative activity” value with U937 AML cells was “almost totally inactive”. Also, the “JAK3 kinase inhibition” value at JAK3 was “did not obviously suppress JAK3 kinase activity”.
As for `CCS(=O)(=O)N1CC(CC#N)(n2cc(-c3ncnc4[nH]ccc34)cn2)C1` [Baricitinib], in the data set with U937 AML cells, the “antiproliferative activity” value was “micromolar IC50 values”. The “JAK3 kinase inhibition” value on JAK3 was “weakly suppressed the activity of JAK3”.
